The text below walks through data of patent US10233143B2, “Pseudoceramide compound, and external use skin preparation composition containing same” (AE KYUNG INDUSTRIAL CO., LTD, priority 2014, dated 2019).

A short description of assay [1]: Strengthening internal hair tissues: hair breakage after 10,000 brushings (Experimental Example 3). The settings on record: for Numbers of broken hairs: hair essence with 0.2 wt % of the substance applied once, among 4,000 strands after 10,000 brushings, untreated 89; for Hair breakage improvement rate: hair essence with 0.2 wt % of the substance, versus untreated hairs. Here is the method:
A formulation of hair essence including novel compounds comprising pseudoceramide prepared in Example 7, a formulation of hair essence including conventional pseudoceramide prepared in Comparative Example 5, a formulation of hair essence without pseudoceramide prepared in Comparative Example 6 were evaluated in view of internal hair tissue strengthening effect. The internal hair tissue strengthening effect was tested in the following manner.
After hairs damaged by permanent weaving, bleaching, shampooing, thermal stimulation, brushing and so on were prepared, ceramide administered essence was applied once to the damaged hairs. In order to evaluate strengths of internal tissues of the hair, after the hair was brushed 10,000 times, a hair breakage improvement rate was calculated using the number of broken strands of untreated hairs and the number of broken strands of treated hairs. The number of hairs used in the experiment was 4,000 in total for each sample.
The hair breakage improvement rate was calculated by the following equation: Breakage improvement rate (%)=(Number of broken strands of untreated hairs−Number of broken strands of treated hairs)/Number of broken strands of untreated hairs

Assay [2] relates to HaCaT human keratinocyte cells. In words: Cytotoxicity assay (MTT). In kind it is cell-based. Conditions: one day incubation, absorbance 540 nm. Here is the method:
Extents of citotoxicity were measured using HaCaT human keratinocyte cells. The HaCaT human keratinocyte cells were maintained in Dulbecco's modified Eagle's medium (DMEM) supplemented with 10% fetal bovine serum (FBS)] and then seeded onto 96-well plates with a concentration of 6×10^3 cells to be cultured at 37° C. in a 5% CO2 atmosphere for one day. Then, the DMEM was replaced with a new one and samples were treated by a serial dilution method with various concentrations ranging from 2.5 mM and then incubated for one day. After one day, 10 μl MTT reagents were treated with a 5 mg/mL concentration in media and the HaCaT cells were then incubated at 37° C. in a 5% CO2 atmosphere for 4 hours. The media were removed and 150 μl DMSO reagent was added to each well to dissolve violet crystals. Absorbance at 540 nm was measured.
A reaction solution without a sample was used as a negative control group. A cell growth rate for each sample solution was calculated by the following equation (1) and the results are shown in FIG. 7: Cell growth rate (%)=A/B×100 (1)
B: Absorbance of negative control group

For assay [3], the system named is Propionibacterium acnes (ATCC 6919). Description: Minimum inhibitory concentration against Propionibacterium acnes (agar medium). In kind it is cell-based. The settings on record: media treated with the sample. Here is the method: To investigate anti-microvial activity of the pseudoceramide compound represented by Formula 3 according to the present invention against propionibacterium acnes, the minimum inhibitory concentration (MIC) of the pseudoceramide sample was measured in the following manner. The sample to be tested was added to reinforced clostridial agar medium (commercially available from Difco Co.) in an amount of 0.06 to 1.0%, followed by solidification of the medium. The suspension of pre-incubated Propionibacterium acnes ATCC 6919 was streaked on the surface of the medium and the medium was incubated for 3 days at 37° C. under anaerobic condition.

Molecules are shown by their SMILES.

As to `CCCCCCCC/C=C/CCCCCCCCNC(=O)CC(/C=C/CCCCCCCCCC)C(=O)O` (stereo not drawn) [Formula 3], in assay [1], the “Numbers of broken hairs” value is recorded as 31 and the “Hair breakage improvement rate” value was found to be 64%. Moreover, the “half maximum inhibitory concentration (IC50), cell growth rate” value in assay [2] was found to be 516.83 ppm. Further, the “growth of strain in treated media (FIG. 8)” value in assay [3] is given as “no strain was expressed”.

For the compound `CCCCCCCCCCCCCCCCCC(=O)N[C@@H](CO)[C@H](O)[C@H](O)CCCCCCCCCCCCCC` [ceramide 3, reference compound], in assay [1], the “Numbers of broken hairs” value stood at 63 and the “Hair breakage improvement rate” value is given as 27%.
